According to the NIST ThermoML archive (doi:10.1016/j.fluid.2015.02.014):
± gives the expanded uncertainty stated by the source.

Details: Liquid, Closed cell (Static) method

SMILES | vapor or sublimation pressure (283.15 K) [kPa] | vapor or sublimation pressure (293.15 K) [kPa] | vapor or sublimation pressure (303.15 K) [kPa] | vapor or sublimation pressure (313.15 K) [kPa] | vapor or sublimation pressure (323.15 K) [kPa]
CCF [fluoroethane] | 601.2 ± 1.3 | 805.6 ± 1.5 | 1058.8 ± 1.8 | 1365.8 ± 2.2 | 1735.2 ± 2.7
C=C(F)C(F)(F)F [2,3,3,3-tetrafluoro-1-propene] | 437.9 ± 1.2 | 591.5 ± 1.3 | 782.9 ± 1.5 | 1018.2 ± 1.8 | 1302.4 ± 2.1
